Measurements taken from US8889874B2, “Imidazolone-chalcone derivatives as potential anticancer agent and process for the preparation thereof” (Council of Scientific and Industrial Research, priority 2010, dated 2014).
Read-outs that look alike come from different tables or passages of the source.

Legend:
Assay in all cases: NCI anticancer screen, SRB assay, 48 h
Assay type in all cases: cell-based, human
[1] = test system: MCF7 (breast); details: Homo sapiens
In short: (§1)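 Sulforhodamine B protein assay read cell growth after 48 h of continuous compound exposure. Dose-response curves per cell line used at least five 10-fold-diluted concentrations, within a panel of fifty-three human lines from nine tumour types.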

[2] = test system: HCT-15 (colon); details: Homo sapiens
In short: as §1

[3] = test system: 786-0 (renal); details: Homo sapiens
In short: as §1

[4] = test system: EKVX (non-small cell lung); details: Homo sapiens
In short: as §1

[5] = test system: RPMI-8226 (leukemia cell line); details: Homo sapiens
In short: as §1

[6] = test system: SW-620 (colon); details: Homo sapiens
In short: as §1

[7] = test system: OVCAR-5 (ovarian); details: Homo sapiens
In short: as §1

[8] = test system: TK-10 (renal); details: Homo sapiens
In short: as §1

[9] = test system: OVCAR-8 (ovarian); details: Homo sapiens
In short: as §1

[10] = test system: MALME-3M (melanoma); details: Homo sapiens
In short: as §1

[11] = test system: CAKI-1 (renal); details: Homo sapiens
In short: as §1

[12] = test system: OVCAR-4 (ovarian); details: Homo sapiens
In short: as §1

[13] = test system: UACC-62 (melanoma); details: Homo sapiens
In short: as §1

[14] = test system: NCI-H322M (non-small cell lung); details: Homo sapiens
In short: as §1

[15] = test system: K-562 (leukemia cell line); details: Homo sapiens
In short: as §1

[16] = test system: U251 (CNS); details: Homo sapiens
In short: as §1

[17] = test system: NCI/ADR-RES (ovarian); details: Homo sapiens, NCI/ADR-RES
In short: as §1

[18] = test system: SK-MEL-5 (melanoma); details: Homo sapiens
In short: as §1

[19] = test system: SF-268 (CNS); details: Homo sapiens
In short: as §1

[20] = test system: NCI-H226 (non-small cell lung); details: Homo sapiens
In short: as §1

[21] = test system: HOP-62 (non-small cell lung); details: Homo sapiens
In short: as §1

[22] = test system: RXF 393 (renal); details: Homo sapiens
In short: as §1

[23] = test system: UACC-257 (melanoma); details: Homo sapiens
In short: as §1

[24] = test system: UO-31 (renal); details: Homo sapiens
In short: as §1

[25] = test system: NCI-H522 (non-small cell lung); details: Homo sapiens
In short: as §1

[26] = test system: SK-OV-3 (ovarian); details: Homo sapiens
In short: as §1

[27] = test system: HCT-116 (colon); details: Homo sapiens
In short: as §1

[28] = test system: SNB-19 (CNS); details: Homo sapiens
In short: as §1

[29] = test system: MDA-MB-435 (melanoma); details: Homo sapiens
In short: as §1

[30] = 48 h exposure, SRB, read-out: GI50
[31] = read-out: pGI50 (-log of molar concentration causing 50% inhibition of net cell growth) (converted)

COc1cc(/C=C/C(=O)c2cccc(-n3cc(-c4ccccc4)[nH]c3=O)c2)cc(OC)c1OC [5a, 4-phenyl-1-3-[(E)-3-(3,4,5-trimethoxyphenyl)-2-propenoyl]phenyl-2,3-dihydro-1H-2-imidazolone]
GI50 [1, 30]: 310 nM | GI50 [1, 31]: 309 nM | GI50 [2, 30]: 1130 nM | GI50 [2, 31]: 1120 nM | GI50 [3, 30]: 1380 nM | GI50 [3, 31]: 1380 nM | GI50 [4, 30]: 2300 nM | GI50 [4, 31]: 2290 nM | GI50 [5, 30]: 620 nM | GI50 [5, 31]: 617 nM | GI50 [6, 30]: 390 nM | GI50 [6, 31]: 389 nM | GI50 [7, 30]: 1880 nM | GI50 [7, 31]: 1860 nM | GI50 [8, 30]: 3020 nM | GI50 [8, 31]: 3020 nM | GI50 [9, 30]: 1620 nM | GI50 [9, 31]: 1620 nM | GI50 ([10]; Malme-3M, read-out: pGI50 (-log of molar concentration causing 50% inhibition of net cell growth) (converted)): 1320 nM | GI50 ([10]; MALME-3M, 48 h exposure, SRB, read-out: GI50): 1310 nM | GI50 [11, 30]: 1750 nM | GI50 [11, 31]: 1740 nM | GI50 [12, 30]: 1880 nM | GI50 [12, 31]: 1860 nM | GI50 [13, 30]: 1520 nM | GI50 [13, 31]: 1510 nM | GI50 [14, 30]: 2020 nM | GI50 [14, 31]: 2040 nM | GI50 ([15]; K562, 48 h exposure, SRB, read-out: GI50): 500 nM | GI50 ([15]; K562, read-out: pGI50 (-log of molar concentration causing 50% inhibition of net cell growth) (converted)): 501 nM | GI50 ([16]; U-251, 48 h exposure, SRB, read-out: GI50): 630 nM | GI50 ([16]; U-251, read-out: pGI50 (-log of molar concentration causing 50% inhibition of net cell growth) (converted)): 631 nM | GI50 ([17]; NCl/ADR-RES, 48 h exposure, SRB, read-out: GI50): 1100 nM | GI50 [17, 31]: 1100 nM | GI50 [18, 30]: 1400 nM | GI50 [18, 31]: 1410 nM | GI50 [19, 30]: 1920 nM | GI50 [19, 31]: 1910 nM | GI50 [20, 30]: 14600 nM | GI50 [20, 31]: 14500 nM | GI50 [21, 30]: 4120 nM | GI50 [21, 31]: 4070 nM | GI50 ([22]; RXF 393, 48 h exposure, SRB, read-out: GI50): 1710 nM | GI50 ([22]; RXF-393, read-out: pGI50 (-log of molar concentration causing 50% inhibition of net cell growth) (converted)): 1700 nM | GI50 [23, 30]: 1520 nM | GI50 [23, 31]: 1510 nM | GI50 [24, 30]: 1510 nM | GI50 [24, 31]: 1510 nM | GI50 [25, 30]: 950 nM | GI50 [25, 31]: 955 nM | GI50 [26, 30]: 3270 nM | GI50 [26, 31]: 3240 nM | GI50 [27, 30]: 330 nM | GI50 [27, 31]: 331 nM | GI50 [28, 30]: 2350 nM | GI50 [28, 31]: 2340 nM | GI50 [29, 30]: 1200 nM | GI50 [29, 31]: 1200 nM
